Source: article PMC9150124, “Design of a Potent, Selective, and Brain-Penetrant Inhibitor of Wnt-Deactivating Enzyme Notum by Optimization of a Crystallographic Fragment Hit” (Journal of Medicinal Chemistry, 2022)

Key:
Assay in all cases: SelectScreen kinase profiling, SSBK ZLyte SP Technology
Format in all cases: biochemical
[1] = biological target: kinase named in conditions (Homo sapiens, UniProt P07949, S891A); conditions: RET S891A, 10 μM
Method: (§1) Kinase selectivity screening was performed by Thermo Fisher Scientific (Paisley, U.K.) in their SelectScreen Biochemical Kinase Profiling Service. Assay information and data are presented in the Supporting Information.
(§2) Kinase selectivity screening was performed by ThermoFisher Scientific (Paisley, U.K.) in their SelectScreenTM
(§3) Biochemical Kinase Profiling service .

[2] = biological target: kinase named in conditions (Homo sapiens, UniProt O00506); conditions: STK25 (YSK1), 10 μM
Method: as §1, §2, §3

[3] = biological target: kinase named in conditions (Homo sapiens, UniProt Q15418); conditions: RPS6KA1 (RSK1), 10 μM
Method: as §1, §2, §3

[4] = biological target: kinase named in conditions (Homo sapiens, UniProt Q96PF2); conditions: STK22B (TSSK2), 10 μM
Method: as §1, §2, §3

[5] = biological target: kinase named in conditions (Homo sapiens, UniProt P16234, V561D); conditions: PDGFRA V561D, 10 μM
Sequence of kinase named in conditions (Homo sapiens, UniProt P16234, V561D) (P16234 24-1089 V561D): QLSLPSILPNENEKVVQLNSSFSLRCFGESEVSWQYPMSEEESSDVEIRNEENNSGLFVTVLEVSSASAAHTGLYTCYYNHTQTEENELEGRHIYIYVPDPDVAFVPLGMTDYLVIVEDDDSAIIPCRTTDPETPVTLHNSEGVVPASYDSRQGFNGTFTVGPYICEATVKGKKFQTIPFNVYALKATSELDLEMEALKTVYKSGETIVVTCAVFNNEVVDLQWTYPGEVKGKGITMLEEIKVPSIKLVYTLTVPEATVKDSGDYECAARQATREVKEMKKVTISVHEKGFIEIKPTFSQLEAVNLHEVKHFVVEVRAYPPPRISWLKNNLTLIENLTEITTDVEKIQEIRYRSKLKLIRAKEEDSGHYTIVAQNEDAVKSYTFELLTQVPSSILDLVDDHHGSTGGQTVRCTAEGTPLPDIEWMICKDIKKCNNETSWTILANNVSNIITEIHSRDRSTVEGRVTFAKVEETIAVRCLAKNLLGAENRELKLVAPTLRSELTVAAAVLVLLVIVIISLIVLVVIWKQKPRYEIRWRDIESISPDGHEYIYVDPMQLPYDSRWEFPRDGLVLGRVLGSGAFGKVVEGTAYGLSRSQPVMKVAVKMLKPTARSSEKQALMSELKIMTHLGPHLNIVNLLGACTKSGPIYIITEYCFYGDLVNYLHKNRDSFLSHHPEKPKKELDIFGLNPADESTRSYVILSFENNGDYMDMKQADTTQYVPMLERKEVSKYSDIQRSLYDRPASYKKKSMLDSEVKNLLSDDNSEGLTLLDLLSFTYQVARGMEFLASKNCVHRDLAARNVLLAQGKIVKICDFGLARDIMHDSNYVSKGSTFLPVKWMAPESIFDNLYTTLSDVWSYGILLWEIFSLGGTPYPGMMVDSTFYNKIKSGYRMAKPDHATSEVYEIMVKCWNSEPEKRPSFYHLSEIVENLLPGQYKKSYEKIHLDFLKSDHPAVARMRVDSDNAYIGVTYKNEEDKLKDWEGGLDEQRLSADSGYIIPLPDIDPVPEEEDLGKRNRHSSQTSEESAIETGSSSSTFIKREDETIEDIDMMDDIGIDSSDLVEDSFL
Method: as §1, §2, §3

[6] = biological target: kinase named in conditions (Homo sapiens, UniProt P21802); conditions: FGFR2, 10 μM
Method: as §1, §2, §3

[7] = biological target: kinase named in conditions (Homo sapiens, UniProt P49674, R178C); conditions: CSNK1E (CK1 epsilon) R178C, 10 μM
Method: as §1, §2, §3

[8] = biological target: kinase named in conditions (Homo sapiens, UniProt Q9UPE1); conditions: STK23 (MSSK1), 10 μM
Method: as §1, §2, §3

[9] = biological target: kinase named in conditions (Homo sapiens, UniProt Q8NE63); conditions: HIPK4, 10 μM
Method: as §1, §2, §3

[10] = biological target: kinase named in conditions (Homo sapiens, UniProt P06493); conditions: CDK1/cyclin B, 10 μM
Method: as §1, §2, §3

[11] = biological target: kinase named in conditions (Homo sapiens, UniProt Q08881); conditions: ITK, 10 μM
Method: as §1, §2, §3

[12] = biological target: kinase named in conditions (Homo sapiens, UniProt P52333); conditions: JAK3, 10 μM
Sequence of kinase named in conditions (Homo sapiens, UniProt P52333) (P52333 whole entry): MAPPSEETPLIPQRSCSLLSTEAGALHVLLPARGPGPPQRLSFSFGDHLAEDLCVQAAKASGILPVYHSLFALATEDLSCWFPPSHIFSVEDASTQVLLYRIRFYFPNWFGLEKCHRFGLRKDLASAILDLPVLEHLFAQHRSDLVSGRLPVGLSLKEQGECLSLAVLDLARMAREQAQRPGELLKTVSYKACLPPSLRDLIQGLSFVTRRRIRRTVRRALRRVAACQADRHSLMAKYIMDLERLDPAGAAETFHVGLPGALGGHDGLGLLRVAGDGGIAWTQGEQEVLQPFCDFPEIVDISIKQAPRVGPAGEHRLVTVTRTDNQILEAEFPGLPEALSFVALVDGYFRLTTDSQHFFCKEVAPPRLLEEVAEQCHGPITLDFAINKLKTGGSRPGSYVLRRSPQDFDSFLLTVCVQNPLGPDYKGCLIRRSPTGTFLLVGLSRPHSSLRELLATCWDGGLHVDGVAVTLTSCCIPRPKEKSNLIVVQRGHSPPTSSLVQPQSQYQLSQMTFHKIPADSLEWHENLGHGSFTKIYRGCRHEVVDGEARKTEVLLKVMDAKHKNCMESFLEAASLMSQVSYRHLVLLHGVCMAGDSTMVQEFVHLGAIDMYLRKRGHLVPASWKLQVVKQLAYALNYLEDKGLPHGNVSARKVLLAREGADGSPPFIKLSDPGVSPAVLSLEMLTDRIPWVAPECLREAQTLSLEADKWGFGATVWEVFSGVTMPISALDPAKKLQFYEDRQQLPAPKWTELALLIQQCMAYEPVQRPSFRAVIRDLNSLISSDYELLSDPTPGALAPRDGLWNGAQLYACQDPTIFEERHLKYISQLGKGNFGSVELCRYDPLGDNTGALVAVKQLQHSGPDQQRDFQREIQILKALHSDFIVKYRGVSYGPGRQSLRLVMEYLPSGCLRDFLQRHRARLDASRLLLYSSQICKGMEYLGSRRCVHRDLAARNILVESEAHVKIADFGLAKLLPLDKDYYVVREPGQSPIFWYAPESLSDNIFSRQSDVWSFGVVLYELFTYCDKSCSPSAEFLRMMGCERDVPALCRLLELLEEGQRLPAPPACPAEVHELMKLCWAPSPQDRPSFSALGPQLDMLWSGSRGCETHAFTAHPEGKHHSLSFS
Method: as §1, §2, §3

[13] = biological target: kinase named in conditions (Homo sapiens, UniProt Q52WX2); conditions: SBK1, 10 μM
Method: as §1, §2, §3

[14] = biological target: kinase named in conditions (Homo sapiens, UniProt Q96BR1); conditions: SGKL (SGK3), 10 μM
Method: as §1, §2, §3

[15] = biological target: kinase named in conditions (Homo sapiens, UniProt P31751); conditions: AKT2 (PKB beta), 10 μM
Method: as §1, §2, §3

[16] = biological target: kinase named in conditions (Homo sapiens, UniProt O15264); conditions: MAPK13 (p38 delta), 10 μM
Method: as §1, §2, §3

[17] = biological target: kinase named in conditions (Homo sapiens, UniProt Q15139); conditions: PRKD1 (PKC mu), 10 μM
Method: as §1, §2, §3

[18] = biological target: kinase named in conditions (Homo sapiens, UniProt P09769); conditions: FGR, 10 μM
Method: as §1, §2, §3

[19] = biological target: kinase named in conditions (Homo sapiens, UniProt Q9H3Y6); conditions: SRMS (Srm), 10 μM
Method: as §1, §2, §3

[20] = biological target: kinase named in conditions (Homo sapiens, UniProt P24723); conditions: PRKCH (PKC eta), 10 μM
Method: as §1, §2, §3

[21] = biological target: kinase named in conditions (Homo sapiens, UniProt P10721, T670I); conditions: KIT T670I, 10 μM
Sequence of kinase named in conditions (Homo sapiens, UniProt P10721, T670I) (P10721 26-976 T670I): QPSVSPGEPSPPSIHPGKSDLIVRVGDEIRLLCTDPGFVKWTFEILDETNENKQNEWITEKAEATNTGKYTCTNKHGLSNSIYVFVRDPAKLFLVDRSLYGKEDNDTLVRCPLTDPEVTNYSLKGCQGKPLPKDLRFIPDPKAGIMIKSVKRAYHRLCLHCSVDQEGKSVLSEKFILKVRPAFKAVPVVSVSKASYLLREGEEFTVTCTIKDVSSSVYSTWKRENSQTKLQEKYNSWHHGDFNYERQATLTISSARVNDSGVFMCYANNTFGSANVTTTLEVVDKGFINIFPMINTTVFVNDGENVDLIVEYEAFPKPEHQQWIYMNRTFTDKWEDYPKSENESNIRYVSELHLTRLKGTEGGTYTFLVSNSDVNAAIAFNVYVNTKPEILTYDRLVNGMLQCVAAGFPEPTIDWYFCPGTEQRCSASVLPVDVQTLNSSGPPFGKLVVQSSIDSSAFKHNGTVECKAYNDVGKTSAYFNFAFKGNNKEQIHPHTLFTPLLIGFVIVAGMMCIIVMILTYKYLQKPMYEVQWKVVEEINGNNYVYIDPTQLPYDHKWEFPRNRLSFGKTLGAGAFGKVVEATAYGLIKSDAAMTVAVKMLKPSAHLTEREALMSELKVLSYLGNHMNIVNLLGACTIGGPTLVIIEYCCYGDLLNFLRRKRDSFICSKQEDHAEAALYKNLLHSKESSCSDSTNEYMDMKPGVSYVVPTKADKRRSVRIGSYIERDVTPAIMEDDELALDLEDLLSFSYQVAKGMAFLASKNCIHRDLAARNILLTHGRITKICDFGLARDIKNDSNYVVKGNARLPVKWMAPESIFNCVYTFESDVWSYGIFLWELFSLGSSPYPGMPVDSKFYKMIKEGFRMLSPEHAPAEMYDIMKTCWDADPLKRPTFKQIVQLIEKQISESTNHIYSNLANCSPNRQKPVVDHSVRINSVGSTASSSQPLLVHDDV
Method: as §1, §2, §3

[22] = biological target: kinase named in conditions (Homo sapiens, UniProt P16234, D842V); conditions: PDGFRA D842V, 10 μM
Sequence of kinase named in conditions (Homo sapiens, UniProt P16234, D842V) (P16234 24-1089 D842V): as the sequence (P16234 24-1089 V561D) above, with D538V, D819V counted along it
Method: as §1, §2, §3

[23] = biological target: kinase named in conditions (Homo sapiens, UniProt P51813); conditions: BMX, 10 μM
Sequence of kinase named in conditions (Homo sapiens, UniProt P51813) (P51813 whole entry): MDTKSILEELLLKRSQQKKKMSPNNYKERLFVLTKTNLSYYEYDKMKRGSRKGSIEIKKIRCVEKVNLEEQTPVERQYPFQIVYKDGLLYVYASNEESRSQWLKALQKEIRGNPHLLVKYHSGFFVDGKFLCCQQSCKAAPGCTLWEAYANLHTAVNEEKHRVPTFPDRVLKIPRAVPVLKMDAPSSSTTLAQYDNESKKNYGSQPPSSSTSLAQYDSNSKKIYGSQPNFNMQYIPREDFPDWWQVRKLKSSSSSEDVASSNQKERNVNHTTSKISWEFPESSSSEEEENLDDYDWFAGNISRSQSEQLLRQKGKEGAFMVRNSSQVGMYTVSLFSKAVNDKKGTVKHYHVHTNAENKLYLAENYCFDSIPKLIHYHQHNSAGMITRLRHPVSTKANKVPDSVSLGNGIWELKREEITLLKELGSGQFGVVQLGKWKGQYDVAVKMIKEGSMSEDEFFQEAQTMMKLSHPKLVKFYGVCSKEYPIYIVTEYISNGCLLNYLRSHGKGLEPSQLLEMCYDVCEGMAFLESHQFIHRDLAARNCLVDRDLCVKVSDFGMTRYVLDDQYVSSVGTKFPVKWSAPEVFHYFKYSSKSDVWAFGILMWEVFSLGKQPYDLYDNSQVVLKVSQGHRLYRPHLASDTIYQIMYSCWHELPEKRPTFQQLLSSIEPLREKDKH
Method: as §1, §2, §3

[24] = biological target: kinase named in conditions (Homo sapiens, UniProt P32298); conditions: GRK4, 10 μM
Method: as §1, §2, §3

[25] = biological target: kinase named in conditions (Homo sapiens, UniProt O60674, V617F); conditions: JAK2 JH1 JH2 V617F, 10 μM
Method: as §1, §2, §3

[26] = biological target: kinase named in conditions (Homo sapiens, UniProt P42345); conditions: FRAP1 (mTOR), 10 μM
Method: as §1, §2, §3

[27] = biological target: kinase named in conditions (Homo sapiens, UniProt P49841); conditions: GSK3B (GSK3 beta), 10 μM
Method: as §1, §2, §3

[28] = biological target: kinase named in conditions (Homo sapiens, UniProt P42685); conditions: FRK (PTK5), 10 μM
Sequence of kinase named in conditions (Homo sapiens, UniProt P42685) (P42685 whole entry): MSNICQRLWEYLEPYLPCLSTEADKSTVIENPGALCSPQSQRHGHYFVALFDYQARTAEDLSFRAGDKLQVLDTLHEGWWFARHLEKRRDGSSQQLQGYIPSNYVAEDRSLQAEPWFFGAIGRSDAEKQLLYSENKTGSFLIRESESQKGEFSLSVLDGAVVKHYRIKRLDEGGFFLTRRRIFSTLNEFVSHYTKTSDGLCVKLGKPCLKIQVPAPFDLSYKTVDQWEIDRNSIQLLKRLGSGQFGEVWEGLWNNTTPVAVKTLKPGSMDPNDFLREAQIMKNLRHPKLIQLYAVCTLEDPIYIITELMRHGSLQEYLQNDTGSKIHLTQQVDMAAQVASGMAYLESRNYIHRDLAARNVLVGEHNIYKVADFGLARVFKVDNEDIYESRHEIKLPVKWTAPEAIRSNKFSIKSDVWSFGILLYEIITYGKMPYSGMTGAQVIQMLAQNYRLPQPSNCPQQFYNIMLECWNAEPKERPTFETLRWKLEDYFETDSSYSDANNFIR
Method: as §1, §2, §3

[29] = biological target: kinase named in conditions (Homo sapiens, UniProt P21802, N549H); conditions: FGFR2 N549H, 10 μM
Method: as §1, §2, §3

[30] = biological target: kinase named in conditions (Homo sapiens, UniProt P00533, G719C); conditions: EGFR (ErbB1) G719C, 10 μM
Method: as §1, §2, §3

[31] = biological target: kinase named in conditions (Homo sapiens, UniProt Q8N568); conditions: DCAMKL2 (DCK2), 10 μM
Method: as §1, §2, §3

[32] = biological target: kinase named in conditions (Homo sapiens, UniProt P22607); conditions: FGFR3, 10 μM
Method: as §1, §2, §3

[33] = biological target: kinase named in conditions (Homo sapiens, UniProt P51817); conditions: PRKX, 10 μM
Method: as §1, §2, §3

[34] = biological target: kinase named in conditions (Homo sapiens, UniProt Q9NYY3); conditions: PLK2, 10 μM
Sequence of kinase named in conditions (Homo sapiens, UniProt Q9NYY3) (Q9NYY3 whole entry): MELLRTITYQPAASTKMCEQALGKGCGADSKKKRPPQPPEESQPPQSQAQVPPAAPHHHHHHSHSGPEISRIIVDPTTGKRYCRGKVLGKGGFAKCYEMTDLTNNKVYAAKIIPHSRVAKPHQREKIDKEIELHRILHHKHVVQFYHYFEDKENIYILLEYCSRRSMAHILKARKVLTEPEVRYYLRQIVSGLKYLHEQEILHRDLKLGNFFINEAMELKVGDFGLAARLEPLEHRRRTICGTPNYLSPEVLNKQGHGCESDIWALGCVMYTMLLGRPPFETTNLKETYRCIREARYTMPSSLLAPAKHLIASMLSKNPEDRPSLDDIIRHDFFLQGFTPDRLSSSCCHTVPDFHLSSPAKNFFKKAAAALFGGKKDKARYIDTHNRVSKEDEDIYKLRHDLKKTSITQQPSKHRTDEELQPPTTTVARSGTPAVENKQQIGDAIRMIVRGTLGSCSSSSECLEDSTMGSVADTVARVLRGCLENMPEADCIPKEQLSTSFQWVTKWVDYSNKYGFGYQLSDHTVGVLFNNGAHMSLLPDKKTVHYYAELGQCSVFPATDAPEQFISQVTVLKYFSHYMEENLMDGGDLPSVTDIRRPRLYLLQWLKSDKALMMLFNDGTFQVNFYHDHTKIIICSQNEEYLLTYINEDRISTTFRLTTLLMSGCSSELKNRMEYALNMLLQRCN
Method: as §1, §2, §3

FC(F)(F)c1c(Cl)ccc(-n2ccnn2)c1Cl [8l, 1-(2,4-Dichloro-3-(trifluoromethyl)phenyl)-1H-1,2,3-triazole]
inhibition at 10 µM [1]: 10%
inhibition at 10 µM [2]: 5%
inhibition at 10 µM [3]: 8%
inhibition at 10 µM [4]: -2%
inhibition at 10 µM [5]: -3%
inhibition at 10 µM [6]: 11%
inhibition at 10 µM [7]: -3%
inhibition at 10 µM [8]: 0%
inhibition at 10 µM [9]: -2%
inhibition at 10 µM [10]: 4%
inhibition at 10 µM [11]: -4%
inhibition at 10 µM [12]: 7%
inhibition at 10 µM [13]: 2%
inhibition at 10 µM [14]: 10%
inhibition at 10 µM [15]: 7%
inhibition at 10 µM [16]: -2%
inhibition at 10 µM [17]: 11%
inhibition at 10 µM [18]: 4%
inhibition at 10 µM [19]: 10%
inhibition at 10 µM [20]: -1%
inhibition at 10 µM [21]: 10%
inhibition at 10 µM [22]: 0%
inhibition at 10 µM [23]: 7%
inhibition at 10 µM [24]: -3%
inhibition at 10 µM [25]: -4%
inhibition at 10 µM [26]: 4%
inhibition at 10 µM [27]: 7%
inhibition at 10 µM [28]: 1%
inhibition at 10 µM [29]: 17%
inhibition at 10 µM [30]: 5%
inhibition at 10 µM [31]: 1%
inhibition at 10 µM [32]: 12%
inhibition at 10 µM [33]: 6%
inhibition at 10 µM [34]: 15%
